The text below walks through data of paper PMC6335172 (Acta Physiologica (Oxford, England), 2018).

For assay [1], the target named is wild type human I Ks channel (Kv7.1/KCNE1) (Homo sapiens, UniProt P51787). The experiment in a line: Two-electrode voltage clamp of I Ks channel. Conditions: pH 9.0, mean ± SEM; for Max ΔV 0.5 (shift of voltage dependence of activation) / Max I/I 0 (relative increase in K+ current at 0 mV) / Max G max/G max0 (maximal conductance normalized to control): fitted maximum from dose response; for Max ΔV 0.5 (shift of voltage dependence of activation): G-V from tail currents. In kind it is cell-based.

The test system of the next assay is Kv7.1 channel. Conditions: Kv7.1 without KCNE1; cited from earlier work.
Assay [2] has as its system I Ks channel (coexpression of Kv7.1 and KCNE1). As to conditions: cited from earlier work; for Effect on the V 0.5 of the I Ks channel at pH 7.5: Kv7.1 co-expressed with KCNE1, pH 7.5.
[3] abbreviates: read-out: K m of ΔV 0.5, Hill fit of dose response.
[4] abbreviates: K m of ΔV 0.5, Hill fit of dose response.

Values joined by “and” are separate entries in the source; they are usually repeats but may differ in a detail not shown here. Equal values may be shown once. Read-outs that look alike come from different tables or passages of the source.

wild type human I Ks channel (Kv7.1/KCNE1), sequence (P51787 whole entry): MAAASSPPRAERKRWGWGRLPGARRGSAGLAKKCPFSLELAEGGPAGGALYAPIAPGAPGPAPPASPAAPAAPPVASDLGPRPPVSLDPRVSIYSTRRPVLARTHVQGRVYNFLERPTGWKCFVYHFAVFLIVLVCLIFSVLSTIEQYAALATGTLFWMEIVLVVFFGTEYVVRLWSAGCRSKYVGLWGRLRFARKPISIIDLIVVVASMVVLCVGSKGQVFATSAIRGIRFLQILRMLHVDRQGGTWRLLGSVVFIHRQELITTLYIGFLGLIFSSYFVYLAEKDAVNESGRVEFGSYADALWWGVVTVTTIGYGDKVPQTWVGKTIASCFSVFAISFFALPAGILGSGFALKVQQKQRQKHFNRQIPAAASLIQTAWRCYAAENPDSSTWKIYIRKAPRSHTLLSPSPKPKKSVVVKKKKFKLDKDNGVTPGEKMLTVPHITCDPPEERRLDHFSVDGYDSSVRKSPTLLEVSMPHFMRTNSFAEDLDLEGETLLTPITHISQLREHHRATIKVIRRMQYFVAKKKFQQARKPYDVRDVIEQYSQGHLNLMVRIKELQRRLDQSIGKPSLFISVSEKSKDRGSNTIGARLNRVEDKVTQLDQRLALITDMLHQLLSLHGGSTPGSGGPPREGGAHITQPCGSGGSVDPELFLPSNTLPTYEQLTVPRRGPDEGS

For the compound `CCC=CCC=CCC=CCCCC(=O)O` [14:3Δ5,8,11, Tetradecatrienoic acid (5,8,11)], in assay [1], the “Max ΔV 0.5 (shift of voltage dependence of activation)” value was determined as 0.80 ± 6.5 mV, the “Max I/I 0 (relative increase in K+ current at 0 mV)” value was 1.1 ± 0.15 and the “Max G max/G max0 (maximal conductance normalized to control)” value was 0.84 ± 0.1.

In the case of `CCC=CCC=CCC=CCCCCCC(=O)O` [16:3Δ7,10,13, Hexadecatrienoic acid (7,10,13)], in assay [1], the “Max ΔV 0.5 (shift of voltage dependence of activation)” value is listed as −13.4 ± 0.6 mV, the “Max I/I 0 (relative increase in K+ current at 0 mV)” value is on record as 2.1 ± 0.02 and the “Max G max/G max0 (maximal conductance normalized to control)” value came out at 0.9 ± 0.2. For the same compound, the EC50 in assay [1] (setting [3]) stood at 7.2 ± 0.5 µM.

As to `CCCCC/C=C\C/C=C\CCCCCCCC(=O)O` [18:2Δ9,12, Linoleic acid (9,12)], in assay [1], the “Max ΔV 0.5 (shift of voltage dependence of activation)” value is given as −29.8 ± 1.7 mV, the “Max I/I 0 (relative increase in K+ current at 0 mV)” value is listed as 3.6 ± 0.6 and the “Max G max/G max0 (maximal conductance normalized to control)” value is recorded as 1.06 ± 0.02.

In assay [1] (setting [4]), `CC/C=C\C/C=C\C/C=C\C/C=C\C/C=C\CCCC(=O)O` [20:5Δ5,8,11,14,17, Eicosapentaenoic acid (5,8,11,14,17)] had an EC50 of 9.8 ± 4.4 µM. For the same compound, in assay [1], the “Max ΔV 0.5 (shift of voltage dependence of activation)” value was −25 ± 4.6 mV, the “Max I/I 0 (relative increase in K+ current at 0 mV)” value was determined as 2.4 ± 0.05 and the “Max G max/G max0 (maximal conductance normalized to control)” value is 1.0 ± 0.1.

Turning to `CCC=CCC=CCC=CCC=CCC=CCCCCCC(=O)O` [22:5Δ7,10,13,16,19, Docosapentaenoic acid (7,10,13,16,19)], in assay [1], the “Max ΔV 0.5 (shift of voltage dependence of activation)” value was −4 ± 0.13 mV, the “Max I/I 0 (relative increase in K+ current at 0 mV)” value amounted to 1.6 ± 0.05 and the “Max G max/G max0 (maximal conductance normalized to control)” value was 1.2 ± 0.01. Moreover, the EC50 in assay [1] (read-out: K m of G max, Hill fit of dose response) was determined as 1.2 ± 1.7 µM. Also, the EC50 in assay [1] (setting [3]) came to 11.1 ± 0.6 µM.

On to `CC/C=C\C/C=C\C/C=C\C/C=C\C/C=C\C/C=C\CCC(=O)O` [22:6Δ4,7,10,13,16,19, Docosahexaenoic acid (4,7,10,13,16,19)], for which, in the assay with Kv7.1 channel, the “Shift of the voltage dependence of activation (V 0.5) of the Kv7.1 channel” value is given as “to more negative voltages”. The compound also had an EC50 in assay [1] (K m of G max, Hill fit of dose response) of 1.8 µM. The compound further had an EC50 in assay [1] (setting [4]) of 3.1 ± 0.1 µM. Moreover, in assay [1], the “Max ΔV 0.5 (shift of voltage dependence of activation)” value is −20.2 ± 0.1 mV; the “Max I/I 0 (relative increase in K+ current at 0 mV)” value is 3.2 ± 0.1 and 3.2 ± 0.01; the “Max G max/G max0 (maximal conductance normalized to control)” value is 1.5 ± 0.2. Besides, the “Effect on the V 0.5 of the I Ks channel at pH 7.5” value in assay [2] was “no effect on the V 0.5”. Also, the “Effect on K+ current when Kv7.1 is co-expressed with KCNE1, pH 7.5” value in assay [2] (pH 7.5) was “abolished”.

On to `CCCCC/C=C\C/C=C\C/C=C\C/C=C\CCCC(=O)NCCS(=O)(=O)O` [N‐AT, N‐arachidonoyl taurine], for which, in assay [2], the “Effect on the V 0.5 of the I Ks channel at pH 7.5” value is listed as “retain the ability to shift the voltage dependence”.
